Reference: patent US20120264928A1, “THERAPEUTIC PHARMACEUTICAL AGENT FOR DISEASES ASSOCIATED WITH DECREASE IN FUNCTION OF GNE PROTEIN, FOOD COMPOSITION, AND FOOD ADDITIVE” (JAPAN HEALTH SCIENCES FOUNDATION, priority 2009, published 2012)

System: primary cultured cells of myotubes derived from the DMRV model mice
Experiment: Amount of NeuAc by HPLC in myotubes from DMRV model mice
Type: cell-based
Details: 100 or 500 μm Ac5GlcNAcol together with 10 mM ManNAc, three days
Procedure: The skeletal muscle tissues collected from the DMRV human patients or the model mice were lightly washed with PBS or Hank's balanced saline and were treated with 0.25% trypsin for 5 minutes. The tissues were finely cut into several millimeters with ophthalmic scissors, were digested with 0.4% collagenase II/0.25% trypsin at 37° C. for 30 minutes, and were left still to collect supernatant. The precipitate was again treated with the enzyme liquid. After being left still, the precipitate was well suspended in a DMEM-Ham's F-12 culture medium. The tissue suspension was passed through a nylon mesh to remove the tissues. The washings and the supernatant were centrifuged to collect cells. […]
In the case that the sample was cultured cells, the cells were washed with PBS three times, and 400 p. […] The fluorescent derivative thus prepared was analyzed with HPLC (JASCO Corp.) using 0.05 to 5 nmol/μl Neu5Ac and Neu5Gc standards. The amount of protein from the tissue was measured with a Bio-Rad Protein Assay kit (Bio-Rad Laboratories).
ManNAc or Ac5GlcNAcol was added to the culture media of primary cultured cells of myotubes derived from the DMRV model mice such that the final concentration of ManNAc was 10 mM and the final concentration of Ac5GlcNAcol was […]. […] The amount of NeuAc in the cultured cells was measured by the HPLC method described above (N=3).

SMILES: CC(=O)N[C@@H](COC(C)=O)[C@@H](OC(C)=O)[C@H](OC(C)=O)[C@@H](COC(C)=O)OC(C)=O [Ac5GlcNAcol, Penta-O-acetyl N-acetylglucosaminitol]
- amount of NeuAc in the myotubes: further increased the amount of NeuAc
